Data as given in US6632789B1, “Methods for modulating T cell responses by manipulating intracellular signal transduction” (The United States of America as represented by the …, priority 1994, dated 2003).
Like-named read-outs stand apart in the source and are kept apart here.

Legend:
[1] = test system: CD28-induced IL-2 production; details: cited from earlier work
[2] = test system: CD28-mediated calcium flux in Jurkat cells; assay: Anti-CD28 antibody-induced calcium flux in Jurkat cells; type: cell-based; details: Jurkat cells stimulated with anti-CD28 antibody; FIG. 4
Description: In this example, the effect of pharmacological inhibitors on calcium flux in Jurkat cells induced by anti-CD28 antibodies was examined. The pharmacological inhibitors studied were wortmannin, which inhibits the activity of PI3K, and herbimycin A, which inhibits the activity of protein tyrosine kinases. Jurkat cells were stimulated with an anti-CD28 antibody, either in medium alone or in the presence of wortmannin or herbimycin A, and the mean calcium concentration (nM) in the cells was measured over several minutes following stimulation.

human T cells = assay: IL-2 production by human T cells after 24 hours (ELISA of supernatants); type: cell-based; details: for IC50: T-cell
Description: In this example, the effect of an inhibitor of phosphatidylinositol 3-kinase on CD28-dependent production of interleukin-2 by T cells was examined. In a first series of experiments, the effect of T cell stimulation through CD28, in conjunction with stimulation through CD3, on IL-2 production was assessed in the absence of wortmannin. Highly purified human peripheral blood T cells were incubated for 24 hours with an immobilized anti-CD3 antibody (OKT3) alone or together with either an anti-CD28 antibody (9.3) or mitomycin C-treated CHO cells, either untransfected or transfected to express B7-1 or B7-2. Increasing numbers of CHO cells were tested (0.5×10^6 to 4×10^6). After culture for 24 hours, the culture supernatants were assayed for IL-2 production by ELISA by standard techniques.
In a next series of experiments, resting human T cells were stimulated with either: 1) immobilized OKT3+CHO-B7-1, 2) immobilized OKT3+CHO-B7-2, 3) immobilized OKT3+CHO-B7-1+B7-2, 4) PMA+CHO-B7-1 or 5) PMA+B7-2. Stimulation of T cells was performed in media alone or in media containing wortmannin at concentrations between 1 nM and 1 μM. Twenty-four hours following culture, the supernatants were assayed for IL-2 production by ELISA. […] Wortmannin-mediated inhibition of IL-2 production was dose dependent. The ID50 for inhibition of B7-2 -mediated stimulation was approximately 10 nM. The ID50 for inhibition of B7-1-mediated stimulation was between 10 and 100 nM.

For `CO[C@H]1[C@@H](OC)C[C@H](C)[C@@H](OC)C2=CC(=O)C=C(NC(=O)/C(C)=C/C=C\[C@H](OC)[C@@H](OC(N)=O)/C(C)=C/[C@@H]1C)C2=O` [herbimycin A], the “inhibition of CD28-induced IL-2 production” value [1] is listed as “can inhibit” and the “inhibition of CD28 antibody-induced calcium flux” value [2] is listed as “capable of inhibiting”.

For `COC[C@H]1OC(=O)c2coc3c2[C@@]1(C)C1=C(C3=O)[C@@H]2CCC(=O)[C@@]2(C)C[C@H]1OC(C)=O` [wortmannin], the IC50 (human T cells; resting human T cells, immobilized OKT3+CHO-B7-1, 24 hours, read-out: ID50 for inhibition of B7-1-mediated stimulation of IL-2 production) was 10 to 100 nM, the IC50 (human T cells; resting human T cells, immobilized OKT3+CHO-B7-2, 24 hours, read-out: ID50 for inhibition of B7-2-mediated stimulation of IL-2 production) was roughly 10 nM and the “toxicity to the cells” value (human T cells; resting human T cells, at the ID50 doses (10 to 100 nM)) was “not generally toxic”. The “inhibition of IL-2 production stimulated by PMA together with membrane-bound B7-1 or B7-2” value (human T cells; resting human T cells, wortmannin at concentrations as high as 1 μM) was “not inhibited”.

For “OKT3: immobilized anti-CD3 antibody (OKT3)”, the IL-2 production (human T cells; purified human peripheral blood T cells, 24 hours, immobilized OKT3 alone, FIG. 6) was “did not produce IL-2”.
